Molecules are shown by their SMILES. Values after ≈ are worked out from the molar mass of the structure shown.

For seven molecules, MIC and ED50 results are on record in EP0051773A1, “Penicillins, their salts, process for their preparation and pharmaceutical compositions containing them” (Dr. Karl Thomae GmbH, priority 1980, dated 1982).

The test system of assay [1] is Proteus mirabilis Hamburgensis. The assay is described as follows: serial dilution test in microtiter system (bacteriostasis, MIC). As to conditions: liquid medium, 18 to 20 h at 37°C, read-out: MHK-Werte Prot. mir. Hbg. It counts as cell-based. The protocol: (§1) Für die Untersuchungen wurde die Methode des Reihenverdünnungstestes im Mikrotitersystem angewandt. Die Prüfung der Substanzen auf Bakteriostase erfolgte in flüssigem Medium. Es wurde die Bakteriostasewirkung bei folgenden Konzentrationen untersucht.
(§2) Es wurde ein Nährboden folgender Zusammensetzung benutzt: 10 g Pepton, 8 g Fleischextrakt-Oxoid, 3 g Natriumschlorid, 2 g sek. Natriumphosphat werden mit dest. Wasser auf 1000 ml aufgefüllt (pH 7,2-7,4). Lediglich bei der Testung gegen Streptokokken wurde 1% Glucose hinzugefügt. Das Alter der Primärkulturen betrug etwa 20 Stunden. Die Einstellung der Keimsuspension erfolgte am Photometer (nach "Eppendorf") (Reagenzglas-Durchmesser 14 mm, Filter 546 nm) anhand der Trübung einer Bariumsulfat-Vergleichssuspension, die durch eine Bariumsulfat-Aufschwemmung erzeugt wurde, welche durch die Zugabe von 3,0 ml 1%ige Bariumchloridlösung in 97 ml 1%ige Schwefelsäure entstand. Nach der Einstellung wurden Streptococcus Aronson im Verhältnis 1:15 und die übrigen Testkeime im Verhältnis 1:1500 mit einer Kochsalzlösung weiter verdünnt.
(§3) 16 mg der jeweiligen Substanz wurden in 10 ml-Meßkolben eingewogen und mit dem Lösungsmittel bis zur Marke aufgefüllt. Die weitere Verdünnungsreihe wurde mit destilliertem Wasser oder dem jeweiligen Lösungsmittel hergestellt.
(§4) Die Vertiefungen der Mikrotiterplatten wurden mit 0,2 ml Nährmedium, 0,01 ml der entsprechenden Substanzverdünnung und mit einem Tropfen Keimsuspension (0,01 ml) beschickt und 18 bis 20 Stunden bei 37°C bebrütet. Eine Lösungsmittelkontrolle wurde stets mitgeführt.
(§5) Die Ablesung wurde makroskopisch vorgenommen, wobei die jeweilige Grenkonzentration (= niedrigste noch bakteriostatisch wirksame Konzentration) ermittelt wurde.
(§6) Als Testorganismen wurden benützt: - Staphylococcus aureus SG 511, Escherichia coli ATCC 11 775, Pseudomonas aeruginosa Hamburgensis und Walter, Serratia marcescens ATCC 13 880, Klebsiella pneumoniae ATCC 10 031 und BC 6, Proteus mirabilis Hamburgensis, Proteus rettgeri BC 7 und Enterobacter cloacae ATCC 13 047.
(§7) In der folgenden Tabelle 2 sind die ermittelten minimalen Hemmkonzentrationen (MIC) für typische Vertreter der erfindungsgemäßen Verbindungen aufgeführt, wobei sich die Ziffern auf die Penicilline der Tabelle 1 Seite 18 beziehen.

Assay [2] deals with Klebsiella pneumoniae ATCC 10 031. The assay is described as above. Type of assay: cell-based. The note with it: ATCC10, liquid medium, 18 to 20 h at 37°C, read-out: MHK-Werte Kl. pneum. ATCC 10 031. The protocol: as §1, §2, §3, §4, §5, §6, §7
Assay [3] relates to Pseudomonas aeruginosa Walter. Described as above. It counts as cell-based. The note with it: liquid medium, 18 to 20 h at 37°C, read-out: MHK-Werte Pseud. aerug. Walter. The protocol:
as §1, §2, §3, §4, §5, §6, §7

Assay [4] deals with Escherichia coli ATCC 11 775. The assay is described as above. Type of assay: cell-based. As to conditions: ATCC11, liquid medium, 18 to 20 h at 37°C, read-out: MHK-Werte E.coli ATCC 11 755. The procedure:
as §1, §2, §3, §4, §5, §6, §7

Assay [5] relates to Klebsiella pneumoniae BC 6. The description is as above. Type of assay: cell-based. As to conditions: BC6, liquid medium, 18 to 20 h at 37°C, read-out: MHK-Werte Kl. pneum. BC 6. The protocol:
as §1, §2, §3, §4, §5, §6, §7

The subject of assay [6] is Enterobacter cloacae ATCC 13 047. The assay is described as above. Type of assay: cell-based. As to conditions: ATCC13, liquid medium, 18 to 20 h at 37°C, read-out: MHK-Werte Eb. cloacae 13 047. The protocol: as §1, §2, §3, §4, §5, §6, §7
For assay [7], the system named is Pseudomonas aeruginosa Hamburgensis. The assay is described as above. It counts as cell-based. The note with it: liquid medium, 18 to 20 h at 37°C, read-out: MHK-Werte Pseud. aerug. Hbg. The protocol: as §1, §2, §3, §4, §5, §6, §7
The subject of assay [8] is Serratia marcescens ATCC 13 880. The description is as above. Type of assay: cell-based. The note with it: ATCC13, liquid medium, 18 to 20 h at 37°C, read-out: MHK-Werte Serr. marcesc. ATCC 13 880. The protocol:
as §1, §2, §3, §4, §5, §6, §7

Assay [9] relates to Staphylococcus aureus SG 511. Described as above. Type of assay: cell-based. As to conditions: SG511, liquid medium, 18 to 20 h at 37°C, read-out: MHK-Werte Staph. aureus SG 511. The protocol:
as §1, §2, §3, §4, §5, §6, §7

The subject of the next assay is Proteus rettgeri BC 7. The assay is described as above. It counts as cell-based. As to conditions: Providencia rettgeri, BC7; liquid medium, 18 to 20 h at 37°C; read-out: MHK-Werte Prot. rettg. BC 7. The protocol: as §1, §2, §3, §4, §5, §6, §7
A further assay concerns E.coli ATCC 11 775. The assay can be described thus: experimental intraperitoneal infection in mice, ED50 (survival). Type of assay: in vivo, Mäuse. The note with it: Escherichia coli, ATCC 11 / ATCC 1175, sc, 168 h; female NMRI mice, i.p. infection, s.c. application, treated once, 7 days observation. The protocol:
Eine Reihe der erfindungsgemäßen Verbindungen wurde in vivo bei experimentellen Infektionen an Mäusen untersucht. Man verwendete als pathogene Bakterien E.coli ATCC 11 775 und Pseudomonas aeruginosa Walter. Es wurde eine intraperitoneale Infektion mit 0,2 ml einer 5%igen Mucinsuspension der Bakterien gesetzt. Dies entspricht etwa 2x10^6 Keime E.coli bzw. 8x10^5 Keime Pseudomonas/Maus. Weibliche Mäuse vom Stamm NMRI wurden in Gruppen von jeweils 10 Tieren aufgeteilt, zwei Gruppen blieben unbehandelt, die restlichen Gruppen wurden mit verschiedenen Dosen der jeweiligen erfindungsgemäßen Penicilline zur Bestimmung der ED50 (Dosis, bei der 50 % der Tiere überleben) behandelt. Bei der E.coli-Infektion wurde einmal therapiert. Bei der Pseudomonas-Infektion wurde dreimal behandelt.
Der Beobachtungszeitraum betrug in beiden Fällen 7 Tage. Die Ergebnisse dieser Teste mit repräsentativen Vertretern der erfindungsgemäßen Penicilline sind in der Tabelle 3 dargestellt.

As to `CC1(C)SC2C(NC(=O)C(NC(=O)Nc3cnc(Nc4ccc(C(N)=O)cc4)nc3O)c3ccc(O)c(Cl)c3)C(=O)N2C1C(=O)O` (centres unmarked) [Verbindung 35], the MIC in [1] was found to be 0.25 µg/mL (≈ 0.373 µM); in [2] it was 4 µg/mL (≈ 5.96 µM); in assay [3] it was 4 µg/mL (≈ 5.96 µM); in assay [4], 0.5 µg/mL (≈ 0.745 µM); in assay [5], 4 µg/mL (≈ 5.96 µM); in [6], 4 µg/mL (≈ 5.96 µM). In addition, the MIC was found to be 2 µg/mL (≈ 2.98 µM) in assay [7], 0.5 µg/mL (≈ 0.745 µM) in assay [8], 0.5 µg/mL (≈ 0.745 µM) in [9] and 0.5 µg/mL (≈ 0.745 µM) in the assay with Proteus rettgeri BC 7.

With `CC1(C)SC2C(NC(=O)C(NC(=O)Nc3cnc(Nc4ccc([N+](=O)[O-])cc4)nc3O)c3ccccc3)C(=O)N2C1C(=O)O` (centres unmarked) [Verbindung 41], in the assay with E.coli ATCC 11 775, the 50% effect level (ED50) was put at a dose of 8.3 mg/kg. Also, the MIC in assay [1] is 0.06 µg/mL (≈ 0.0964 µM); in assay [2], 0.5 µg/mL (≈ 0.803 µM); in assay [3], 2 µg/mL (≈ 3.21 µM); in assay [4], 0.12 µg/mL (≈ 0.193 µM); in [5], 0.5 µg/mL (≈ 0.803 µM); in [6] it was 0.5 µg/mL (≈ 0.803 µM). Also, the MIC was 2 µg/mL (≈ 3.21 µM) in [7], 0.12 µg/mL (≈ 0.193 µM) in assay [8], 0.25 µg/mL (≈ 0.402 µM) in [9] and 0.25 µg/mL (≈ 0.402 µM) in the assay on Proteus rettgeri BC 7.

For the molecule `CC1(C)SC2C(NC(=O)C(NC(=O)Nc3cnc(Nc4ccc(S(N)(=O)=O)c(O)c4)nc3O)c3ccc(O)c(Cl)c3)C(=O)N2C1C(=O)O` (centres unmarked) [Verbindung 49], the MIC in [1] came out at 0.12 µg/mL (≈ 0.166 µM); in [2] it was 1 µg/mL (≈ 1.38 µM); in assay [3], 2 µg/mL (≈ 2.77 µM); in [4], 0.25 µg/mL (≈ 0.346 µM); in assay [5], 1 µg/mL (≈ 1.38 µM); in assay [6], 1 µg/mL (≈ 1.38 µM). Further, the MIC is 2 µg/mL (≈ 2.77 µM) in [7], 0.25 µg/mL (≈ 0.346 µM) in assay [8], 0.25 µg/mL (≈ 0.346 µM) in assay [9] and 0.5 µg/mL (≈ 0.691 µM) in the assay on Proteus rettgeri BC 7.

On to `CC1(C)S[C@@H]2[C@H](NC(=O)C(NC(=O)Nc3cnc(Nc4ccc(C(N)=O)c(C(N)=O)c4)nc3O)c3ccc(O)cc3)C(=O)N2[C@H]1C(=O)O` (some centres unmarked) [Verbindung 55], for which the MIC was determined as 0.12 µg/mL (≈ 0.177 µM) in [1]; 2 µg/mL (≈ 2.94 µM) in assay [2]; 1 µg/mL (≈ 1.47 µM) in assay [3]; 0.25 µg/mL (≈ 0.368 µM) in assay [4]; 4 µg/mL (≈ 5.89 µM) in assay [5]; 2 µg/mL (≈ 2.94 µM) in [6]. Further, the MIC in assay [7] came out at 1 µg/mL (≈ 1.47 µM); in [8] it was 0.25 µg/mL (≈ 0.368 µM); in [9], 0.25 µg/mL (≈ 0.368 µM); with Proteus rettgeri BC 7 it was 0.5 µg/mL (≈ 0.736 µM).

On to `CC(=O)Oc1ccc(CNc2ncc(NC(=O)NC(C(=O)N[C@@H]3C(=O)N4[C@@H]3SC(C)(C)[C@@H]4C(=O)O)c3ccc(O)cc3)c(O)n2)cc1` (some centres unmarked) [Verbindung 59], for which the MIC in [1] worked out at 0.06 µg/mL (≈ 0.0901 µM); in assay [2], 4 µg/mL (≈ 6.01 µM); in assay [3], 2 µg/mL (≈ 3 µM); in assay [4], 0.5 µg/mL (≈ 0.751 µM); in assay [5], 4 µg/mL (≈ 6.01 µM); in [6] it was 2 µg/mL (≈ 3 µM). In addition, the MIC was found to be 2 µg/mL (≈ 3 µM) in assay [7], 0.5 µg/mL (≈ 0.751 µM) in assay [8], 0.5 µg/mL (≈ 0.751 µM) in [9] and 1 µg/mL (≈ 1.5 µM) in the assay on Proteus rettgeri BC 7.

As to `CC1(C)S[C@@H]2[C@H](NC(=O)C(NC(=O)Nc3cnc(NCc4ccc(F)cc4)nc3O)c3ccc(O)cc3)C(=O)N2[C@H]1C(=O)O` (some centres unmarked) [Verbindung 60], the MIC was 0.25 µg/mL (≈ 0.4 µM) in assay [1]; 2 µg/mL (≈ 3.2 µM) in assay [2]; 2 µg/mL (≈ 3.2 µM) in assay [3]; 0.25 µg/mL (≈ 0.4 µM) in assay [4]; 2 µg/mL (≈ 3.2 µM) in [5]; 1 µg/mL (≈ 1.6 µM) in assay [6]. In addition, the MIC in assay [7] turned out to be 2 µg/mL (≈ 3.2 µM); in assay [8] it was 0.5 µg/mL (≈ 0.799 µM); in [9], 0.25 µg/mL (≈ 0.4 µM); in the assay with Proteus rettgeri BC 7 it was 0.5 µg/mL (≈ 0.799 µM).

For the molecule `CC1(C)S[C@@H]2[C@H](NC(=O)C(NC(=O)Nc3cnc(NCc4ccccc4)nc3O)c3ccccc3)C(=O)N2[C@H]1C(=O)O` (some centres unmarked) [Verbindung 61], the MIC in [1] was 0.25 µg/mL (≈ 0.423 µM); in assay [2] it was 1 µg/mL (≈ 1.69 µM); in assay [3] it was 2 µg/mL (≈ 3.38 µM); in [4] it was 0.25 µg/mL (≈ 0.423 µM); in assay [5] it was 2 µg/mL (≈ 3.38 µM); in assay [6], 1 µg/mL (≈ 1.69 µM). Besides, the MIC worked out at 2 µg/mL (≈ 3.38 µM) in assay [7], 0.5 µg/mL (≈ 0.845 µM) in assay [8], 0.25 µg/mL (≈ 0.423 µM) in assay [9] and 0.5 µg/mL (≈ 0.845 µM) with Proteus rettgeri BC 7.
